{"source": "patent US20050163801A1", "about": "“Method of inducing apoptosis and compositions therefor” (Kyowa Engineering Co., Ltd., priority 2001, published 2005)", "format_in_all_cases": "cell-based", "key": {"HL-60 cell lines": {"tested_on": "HL-60 cell lines", "experiment": "Apoptosis inducing activity (Test 3), TUNEL method", "conditions": "culture for two days", "protocol": "3. Apoptosis inducing activity (Test 3): Measurement was performed using a terminal deoxynucleotidyl transferase (TdT)-mediated deoxyuridine triphosphate (dUTP)-biotin nick end-labeling method (TUNEL method). The TUNEL method is a method for identifying apoptosis on a tissue slice reported by Gavrieli et al. in 1992 (Yael Gavrieli et al., The Journal of Cell Biology, vol. 119, No.3, November, 1992, p. 493-501). The method is known to be a method which enables observation of apoptosis at the individual cell level at various states of morbidity and allows comparison with morphology changes. The TUNEL method was performed with HL-60 cell lines using Apoptosis in situ Detection Kit wako (Wako Pure Chemical Industries, Ltd.), according to the method of Gavrieli et al., supra.\nThe results of FIG. 9 show results measured for respective test groups. […] Based on the above results, cell death of HL60 cell lines by ABMK-22 are confirmed to be death caused by the induction of apoptosis.\nFor identifying the ingredient having the apoptosis induction activity in ABMK-22 obtained in Example 2, ABMK-22 was further purified and fractionated. The obtained ingredient was subjected to the method described in section “3. […]\nNext, the apoptosis induction activity of a ly-ophilized powder of ABMK0415 and ABMK6873 were measured as described in section “3. […]"}, "[1]": {"tested_on": "dendric cells (DC) derived from human peripheral blood monocytes", "experiment": "Immune activation activity: induction of dendritic cells from peripheral blood monocytes, CD80 expression by flow cytometry", "conditions": "for DCs with increase in expression of CD80: analysed on seventh day", "description": "Dendritic cells are involved in the establishment of immunity. Dendritic cells may also be called arborescent cells, dendritic leukocyte, or D cells. This is the generic term for cell groups having dendritic form derived from myelocytes distributed in various tissue organs in the living body except for the brain. The cell groups include lymphoid dendritic cells, Langerhans cells, veil cells, inter-connected cells, and interstitional cells. Accompanying an inflammation response caused by invasion of foreign matter, the cells perform pinocytosis, and move from a local spot via the vas afferens to an associated lymph node or to the spleen through bloodstream. The cells are known to start an immune response after they reach a T cell-dependent region by presenting an antigen in a form combined with class II antigen and by activating specific T cells. Namely, the cells play an important role in the immune system. In the present example, the immune activation activity of ABMK0415 and ABMK6873 were confirmed by assaying the induction power of monocytes to dendritic cells.\nPeripheral blood of two healthy people was used as a material with donor consent.\nPBMC were separated from a whole blood specimen which was collected with heparinization by a Ficoll-Paque density centrifugal separation method.\nABMK0415 and ABMK6873 were used as test samples. ABMK0415 and ABMK6873 were respectively dissolved in culture media of cells used for tests (10% FCS added RPMI-1640, 5% human AB serum added RPMI-1640) such that each mixture has a concentration of 200 mg/ml. The mixtures were filter-sterilized through a filter having a pore diameter of 0.22 μm to obtain test samples.\nAn effect of immune activation of novel compounds was examined in vittro through induction power for dendric cells (DC) derived from human peripheral blood monocytes.\nPBMC was processed with a dish treatment for one hour with a carbon dioxide gas incubator. Thus, a monocyte-rich attachment cell fraction was obtained. The cells obtained were cultured in 5% human AB serum added RPMI-1640 (NIKKEN BIOLOGICAL MEDICAL RESEARCH), in the presence of 500 U/ml of GM-CSF (DIACLONE Research) and IL-4(BD Biosciences).\nFor culturing, a dish (NUNC) having a diameter of 3.5 cm was used. On the sixth day of culture, Picibanil and the novel compound were added such that the final concentration is 0.1 KE/ml for Picibanil, and 200 μg/ml for ABMK0415and ABMK6873. Picibanil (Chugai Pharmaceutical Co., Ltd.) was used as a positive control which has a DC induction power. […]\nAll DCs in the dish were collected on the seventh day after the culture started. The surface antigen thereof was analyzed by flow cytometry using a monoclonal antibody (anti-CD80; BD Bioscience). […]"}, "HL60 cell line [2]": {"tested_on": "HL60 cell line", "experiment": "Cell growth suppression activity (Test 1), cell number by counting chamber", "protocol": "1. Cell growth suppression activity (Test 1): For assay, the Collagen gel droplet embedded culture-drug sensitivity test (CD-DST method) and a counting chamber were used.\nA method using a counting chamber was performed following the method described in Rinsho Kensaho Teiyo (Kanai's Manual of Clinical Laboratory Medicine), 30th Ed. (Aug. 20, 1993; Kanehara & Co., Ltd.; Tokyo).\nBased on the results of measurement using HL60 cell lines, it became clear that the CD-DST method is not suitable for measuring the growth state of suspended cells. Therefore, the cell growth suppression activity was measured using a counting chamber.\nFirst, growth of HL60 cell lines was examined in the presence of ABMK-22 at various concentrations to obtain a growth curve of the HL60 line. More specifically, an initial number of cells of HL 60 cell lines was set to be 200,000/ mL. ABMK-22 was added to have concentrations of 0.1, 0.25, 0.5, 0.75, 1, 2, 2.5, 3, 4and 5 mg/1 mL, respectively and cultured. The number of the cells was measured over time for four days.\nEach of the symbols in FIG. 1 indicates the result of measurement of the number of the cells (number/ml) in the presence of ABMK-22 at the concentration of the number indicated in the lower part of FIG. 1 by the symbols. […]"}, "HL60 cell line [3]": {"tested_on": "HL60 cell line", "experiment": "Cell differentiation inducing activity (Test 2), NBT reduction", "conditions": "used by itself; NBT reducing power", "protocol": "2. Cell differentiation inducing activity (Test 2): Evaluation was made using Nitro blue tetrazolium (NBT) reduction power. NBT reduction was performed in accordance with the method of S. J. Collins et al. (Int. J. Cancer: 25, pages 213-218 (1980)). In brief, the method is as follows: about 2×10^5 HL60 cells were pelleted, and washed in RPMI-1640 medium. Then, the cells were suspended in RPMI-1640 medium containing 0.1% NBT and 100 ng/ml of phorbol ester (TPA), and cultured for forty minutes at 37° C. The resultant culture was observed under microscope and cells containing blue-black deposits were assessed as differentiated cells. In the presence of ABMK-22 at various concentrations, HL60 cells were cultured for four days and the differentiation inducing power of ABMK-22 was measured. The results of measuring NBT reducing power, which is an indicator of differentiation of a HL60 cell line under each concentration, are shown in FIG. 7. […] At a concentration of 4 mg/mL, about 33% of the cells that were alive were differentiated."}}, "data": [{"compound": "O=Cc1ccc(CO)n1CCCC(=O)O", "note": "[ABMK0415, N-(3-carboxypropyl)-2-formyl-5-hydroxy-methylpyrrole]", "values": [{"measurement": "cells in which apoptosis was induced (apoptosis positive cells)", "setting": "HL-60 cell lines; 2.07×10^−4M", "result": "about 35%"}, {"measurement": "DCs with increase in expression of CD80", "setting": "[1]; 200 μg/ml added on sixth day", "result": "about 20%"}]}, {"compound": "N[C@@H](CCC(=O)NNc1ccc(C=O)cc1)C(=O)O", "note": "[ABMK6873]", "values": [{"measurement": "cells in which apoptosis was induced (apoptosis positive cells)", "setting": "HL-60 cell lines; 2.7×10^−4M", "result": "about 70%"}, {"measurement": "expression induction of CD80 molecules", "setting": "[1]; 200 μg/ml added on sixth day", "result": "remarkably strong expression induction of CD80 molecules"}, {"measurement": "DCs with increase in expression of CD80", "setting": "[1]; 200 μg/ml added on sixth day", "result": "about 92%"}, {"measurement": "DC inducing power", "setting": "[1]; compared with Picibanil", "result": "stronger than that of Picibanil"}, {"measurement": "growth of HL-60 cells", "setting": "HL60 cell line [2]; 2.7×10^−4M", "result": "remarkably suppressed"}, {"measurement": "growth of HL-60 cells", "setting": "HL60 cell line [2]; various concentrations (2.07×10^−6M to 2.07×10^−4M ABMK0415; 2.7×10^−6M to 2.7×10^−4M ABMK6873)", "result": "suppress growth of HL-60 cells in nearly a concentration-dependent manner"}]}, {"compound": "CC1=C(/C=C/C(C)=C/C=C/C(C)=C/C(=O)O)C(C)(C)CCC1", "note": "[ATRA, all-trans retinoic acid]", "values": [{"measurement": "concentration at which the agent by itself does not exhibit cell differentiation induction activity", "setting": "HL60 cell line [3]", "result": "≤ 10^−9 M"}]}, {"compound": "C=C1/C(=C\\C=C2/CCC[C@]3(C)[C@@H]([C@H](C)CCCC(C)(C)O)CC[C@@H]23)C[C@@H](O)C[C@@H]1O", "note": "[VD3, 1α, 25(OH)2D3]", "values": [{"measurement": "concentration at which the agent by itself does not exhibit cell differentiation induction activity", "setting": "HL60 cell line [3]", "result": "≤ 10^−10 M"}]}]}
